From patent publication US20260235624A1, “PEPTIDES AND THEIR LABELLED DERIVATIVES SUITABLE FOR USE IN THE DIAGNOSIS OF DIABETES OR ITS COMPLICATIONS” (Instytut Medycyny Doswiadczalnej i Klinicznej im. Miroslawa …, priority 2023, published 2026) come the findings set out here.

One test has as its system ADAM17. The test is described as follows: Hydrolysis of the ADAM17 substrate in urine samples, increase in fluorescence. Type of test: biochemical, human. The conditions noted are these: control urine samples Z1-Z10 (healthy subjects); 20 μL of 45 μM substrate, buffer pH 9.0, 37° C., 30 minutes, triplicate. The method, then: (§1) 20 μL of a 45 μM substrate solution of the peptide of the invention or its labelled derivative were mixed with 100 μL of the measurement buffer (25 mM Tris-Cl, 2.5 μM ZnCl2 and 0.005% Brij-35, pH 9.0) and 80 μL of test urine from a patient diagnosed with diabetes or a healthy person (control).
(§2) When fluorescently labelled derivatives were used, measurements were carried out in triplicate in a 96-well plate using a CLARIOStar plate reader (BMG Labtech, Ortenberg, Germany) at 37° C. for 30 minutes. After this time, the measurement was finished and the increase in fluorescence was determined. If a fluorescence increase of more than 0.0001 U/sec was obtained, the urine sample tested was considered to originate from a person with diabetes.

Another test concerns ADAM10. In words: Hydrolysis of the ADAM10 substrate in urine samples, increase in fluorescence. In kind it is biochemical, human. The conditions noted are these: control urine samples Z1-Z10 (healthy subjects); 20 μL of 45 μM substrate, buffer pH 9.0, 37° C., 30 minutes, triplicate. The method, then:
as §1, §2

Consider “ABZ-Asn-Tyr-Met-Ala-Leu-Arg-Arg-Tyr(3-NO2)—NH2”, for which, in the test with ADAM17, the “Increase in concentration of labelled degradation products in the urine sample, Mean” value amounted to 0.000000. “ABZ-Lys-Ile-Ile-Asn-Leu-Lys-Arg-Tyr(3-NO2)—NH2”: the “Increase in concentration of labelled degradation products in the urine sample, Mean” value in the test with ADAM10 came to 0.000000.
